“And” between values parts separate entries of the source, which are not always exact repeats. Equal entries are not always repeated.
Experiments:
HDAC 1 = HDAC 1 (Homo sapiens, UniProt Q13547); test: HDAC 1 fluorescence assay with about 3 hours preincubation; format: biochemical; settings: 3-hour preincubation of enzyme and compound; two numbers = two different lots of the compound; read-out: HDAC 1 inhibitory activity (IC50 [μM]) (3-hour preincubation)
Protocol: The second assay is similar to the first assay described above, except that preincubation is carried out for about 3 hours after the enzyme is introduced. The test compound was suspended in, and titrated in DMSO. It was then spotted into a 384-well test plate. The enzyme, HDAC 1, was diluted in the same assay buffer as used in the previous assay and added to the pre-spotted compound. The enzyme/compound mix was incubated at room temperature for about 3 hours. The peptide substrate containing a fluorophore/quencher pair was diluted in the assay buffer and added to the compound/enzyme mix initiating the reaction. The reaction incubated at room temperature for 45 minutes. A concentrated developer solution was diluted in the assay buffer, and added to the reaction. The reaction was incubated at room temperature for about 15 minutes and relative fluorescence was read on an instrument reader.
Where two numbers are given, the values are reported for measurements on two different lots of the compound.

CDK2 = CDK2 (Homo sapiens, UniProt P24941); test: CDK2 inhibition; format: biochemical; settings: two numbers = two different lots of the compound

Chain of HDAC 1 (Q13547 whole entry, species assumed): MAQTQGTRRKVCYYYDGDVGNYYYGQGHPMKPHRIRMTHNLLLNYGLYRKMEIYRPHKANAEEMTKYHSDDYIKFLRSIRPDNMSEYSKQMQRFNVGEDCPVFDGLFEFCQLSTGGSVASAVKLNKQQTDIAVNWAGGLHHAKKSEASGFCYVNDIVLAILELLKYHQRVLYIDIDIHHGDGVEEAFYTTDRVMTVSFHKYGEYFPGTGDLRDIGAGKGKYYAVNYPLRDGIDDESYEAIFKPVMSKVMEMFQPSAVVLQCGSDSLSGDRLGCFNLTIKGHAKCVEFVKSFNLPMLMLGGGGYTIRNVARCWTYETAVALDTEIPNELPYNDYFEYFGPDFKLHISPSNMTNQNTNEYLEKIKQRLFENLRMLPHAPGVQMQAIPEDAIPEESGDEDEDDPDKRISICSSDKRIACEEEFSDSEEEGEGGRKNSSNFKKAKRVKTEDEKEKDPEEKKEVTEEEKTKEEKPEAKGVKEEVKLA

Row | SMILES | IC50 (HDAC 1) | IC50 (CDK2)
1 | COC(=O)c1ccc2c(c1)/C(=C(\C)Nc1ccc(C(=O)Nc3ccccc3N)cc1)C(=O)N2 [Example 1, 3-{1-[4-(2-Amino-phenylcarbamoyl)-phenylamino]-ethylidene}-2-oxo-2,3-dihydro-1H-indole-5-carboxylic acid methyl ester] | 0.033 µM | 0.043 µM
2 | COC(=O)c1ccc2c(c1)/C(=C/Nc1ccc(C(=O)Nc3ccccc3N)cc1)C(=O)N2 [Example 2, 3-{[4-(2-Amino-phenylcarbamoyl)-phenylamino]-methylene}-2-oxo-2,3-dihydro-1H-indole-5-carboxylic acid methyl ester] | 0.17 µM | 0.07 µM
3 | C/C(Nc1ccc(C(=O)Nc2ccccc2N)cc1)=C1/C(=O)Nc2ccc(C#N)cc21 [Example 3, N-(2-Amino-phenyl)-4-[1-(5-cyano-2-oxo-1,2-dihydro-indol-3-ylidene)-ethylamino]-benzamide] | 0.029 µM and 0.021 µM | 0.01 µM and 0.02 µM
4 | CC(=O)c1ccc2c(c1)/C(=C(\C)Nc1ccc(C(=O)Nc3ccccc3N)cc1)C(=O)N2 [Example 4, 4-[1-(5-Acetyl-2-oxo-1,2-dihydro-indol-3-ylidene)-ethylamino]-N-(2-amino-phenyl)-benzamide] | 0.064 µM and 0.03 µM | 0.01 µM
5 | C/C(Nc1ccc(C(=O)Nc2ccccc2N)cc1)=C1/C(=O)Nc2ccc(C(=O)C(C)C)cc21 [Example 5, N-(2-Amino-phenyl)-4-[1-(5-isobutyryl-2-oxo-1,2-dihydro-indol-3-ylidene)-ethylamino]-benzamide] | 0.335 µM | 0.02 µM
6 | C/C(Nc1ccc(C(=O)Nc2ccccc2N)cc1)=C1/C(=O)Nc2ccc(S(=O)(=O)N3CCOCC3)cc21 [Example 6, N-(2-Amino-phenyl)-4-{1-[5-(morpholine-4-sulfonyl)-2-oxo-1,2-dihydro-indol-3-ylidene]-ethylamino}-benzamide] | 0.186 µM | 0.52 µM
7 | C/C(Nc1ccc(C(=O)Nc2ccccc2N)cc1)=C1/C(=O)Nc2ccc(-c3csc(C)n3)cc21 [Example 7, N-(2-Amino-phenyl)-4-{1-[5-(2-methyl-thiazol-4-yl)-2-oxo-1,2-dihydro-indol-3-ylidene]-ethylamino}-benzamide] | 0.232 µM | > 40 µM
8 | CC(Nc1ccc(C(=O)Nc2ccccc2N)cc1)=C1C(=O)Nc2ccc(S(C)(=O)=O)cc21 [Example 8, N-(2-Amino-phenyl)-4-[1-(5-methanesulfonyl-2-oxo-1,2-dihydro-indol-3-ylidene)-ethylamino]-benzamide] | 0.1 µM | 0.13 µM
9 | CN(C)CCNC(=O)c1ccc2c(c1)/C(=C/Nc1ccc(C(=O)Nc3ccccc3N)cc1)C(=O)N2 [Example 9, 3-{[4-(2-Amino-phenylcarbamoyl)-phenylamino]-methylene}-2-oxo-2,3-dihydro-1H-indole-5-carboxylic acid (2-dimethylamino-ethyl)-amide] | 0.063 µM | 0.25 µM
10 | C/C(Nc1ccc(C(=O)Nc2ccccc2N)cc1)=C1/C(=O)Nc2ccc(C(=O)O)cc21 [Example 10, 3-{1-[4-(2-Amino-phenylcarbamoyl)-phenylamino]-ethylidene}-2-oxo-2,3-dihydro-1H-indole-5-carboxylic acid] | 0.181 µM | 0.44 µM
11 | COC(=O)c1ccc2c(c1)/C(=C(\C)Nc1ccc(C(=O)NO)cc1)C(=O)N2 [Example 11, 3-[1-(4-Hydroxycarbamoyl-phenylamino)-ethylidene]-2-oxo-2,3-dihydro-1H-indole-5-carboxylic acid methyl ester] | 0.635 µM | > 40 µM
12 | C/C(Nc1ccc(C(=O)Nc2ccccc2N)cc1)=C1/C(=O)Nc2ccc(C(=O)N(C)C)cc21 [Example 12, 3-{1-[4-(2-Amino-phenylcarbamoyl)-phenylamino]-ethylidene}-2-oxo-2,3-dihydro-1H-indole-5-carboxylic acid dimethylamide] | 0.071 µM | 0.34 µM
13 | C/C(Nc1ccc(C(=O)Nc2ccccc2N)cc1)=C1/C(=O)Nc2ccc(C(C)O)cc21 (centres unmarked) [Example 13, N-(2-Amino-phenyl)-4-{1-[5-(1-hydroxy-ethyl)-2-oxo-1,2-dihydro-indol-3-ylidene]-ethylamino}-benzamide] | 0.036 µM | 1.01 µM
